# From EP2408450B1, “ALPHA-(N-SULFONAMIDO)ACETAMIDE COMPOUND AS AN INHIBITOR OF BETA AMYLOID PEPTIDE PRODUCTION” (Bristol-Myers Squibb Company, priority 2009, dated 2010)
# Assays:
# [1] = Metabolic stability in liver microsomes (mouse); format: in vitro ADME
# Description: (§1) Mouse, rat, dog, human, and cynomolgus monkey liver microsomes were obtained from BD Gentest (Woburn, MA). The lot numbers were 13 (mouse), 8 (rat), 8 (dog), 19 and 26 (human), and 3 (cynomolgus monkey). […] The reaction, conducted in triplicate, was initiated by the addition of NADPH followed by incubation at 37°C for 50 minutes. Aliquots of samples (0.25 mL) were taken at 0, 5, 10, 20, 30, 40 and 50 minutes and the reaction was quenched by the addition of 3 volumes of acetonitrile. […] The reaction, conducted in triplicate, was initiated by the addition of NADPH followed by incubation at 37 °C for 50 minutes. Aliquots of samples (0.25 mL) were taken at 0, 5, 10, 20, 30, 40 and 50 minutes and the reaction was quenched by the addition of 3 volumes of acetonitrile. […] The reaction, conducted in duplicate, was initiated by the addition of NADPH followed by incubation at 37°C for 40 minutes. Aliquots of samples (0.25 mL) were taken at 0, 5, 10, 15, 20, 30 and 40 minutes and the reaction was quenched by the addition of 3 volumes of acetonitrile. For all studies, samples were analyzed immediately by an LC/MS method.
# [2] = Metabolic stability in liver microsomes (rat); format: in vitro ADME
# Description: as §1
# [3] = Metabolic stability in liver microsomes (dog); format: in vitro ADME
# Description: as §1
# [4] = Metabolic stability in liver microsomes (cynomolgus monkey); format: in vitro ADME
# Description: as §1
# Aβ40 = assay: Inhibition of Aβ40 formation in cultured H4 APP751 SWE cells; format: cell-based; conditions: H4-8Sw cells, mean ± SD, n = 50
# Description: (§2) Cells were maintained in log phase through twice weekly passage at a 1:20 dilution. […] Following incubation for 19 hours in 5% CO2 at 37°C, plates were briefly centrifuged (1000 rpm, 5 min). […] Antibody cocktails were freshly prepared by dilution into 40 mM Tris-HCl (pH 7.4) with 0.2% BSA and added to assay plates. […] Assay plates containing antibodies were sealed with aluminum foil and incubated overnight at 4°C. Signal was determined using a Viewlux counter (Perkin Elmer) and IC50 values determined using curve fitting in CurveMaster (Excel Fit based).
# Aβ42 = assay: Inhibition of Aβ42 formation in cultured H4 APP751 SWE cells; format: cell-based; conditions: H4-8Sw cells, mean ± SD, n = 45
# Description: as §2
# CSF Aβ40 = assay: Rat CSF Aβ40 assay (4G8-TSD ELISA); format: in vivo; conditions: acute rat studies; read-out: ED50 for reduction of CSF Aβ40
# Description: As a result of these sequence differences, antibodies that recognize the N-terminal region of human Aβ, such as 26D6, bind weakly to rodent Aβ. […] Table 1: Summary of Antibody Pairs Used to Assay In vivo Samples Each of these assays was validated using several methods. […] The optimized and validated Aβ assays still contained a small amount of the signal (5-20% of vehicle control) which could not be depleted by anti-Aβ antibodies or treatment with γ-secretase inhibitors. […] Female Harlan Sprague-Dawley rats (∼200 - 250 g) were dosed daily by oral gavage with a dosing vehicle of 99% PEG-400, 1% Tween-80 at 4 mL/kg in the morning. […] All procedures were done in concordance with ACUC guidelines. […] Plasma was obtained after centrifugation. […] CSF samples were centrifuged to remove cells or debris prior to dilution at 1:2 in 4% BSA and frozen for subsequent analysis. […] Plates were coated with TSD antibody and washed as for the brain Aβ40 assay. CSF samples were diluted 1:10 in PBS, pH 7.8, 0.1 % Tween-20. At time of collection, CSF was previously diluted 1:2 in 4% BSA in water. […] Samples were detected using 4G8-biotin (Signet) diluted 1:8000 in PBS, 0.05% Tween, 0.1% BSA for 1 hour.
# plasma Aβ40 = assay: Rat plasma Aβ40 assay (4G8-TSD ELISA); conditions: for plasma Aβ40, % of baseline Aβ40 values: 2 to 24 hours post dosing
structure (smiles),measurement,setting,value
"NC(=O)[C@@H](CCC(F)(F)F)N(Cc1ccc(-c2ncon2)cc1F)S(=O)(=O)c1ccc(Cl)cc1 [(2R)-2-[[(4-chlorophenyl)sulfonyl][[2-fluoro-4-(1,2,4-oxadiazol-3-yl)phenyl]methyl]amino]-5,5,5-trifluoropentanamide]",rate of in vitro metabolism,"[1]; mouse microsomes, NADPH-fortified, 1 µM",690 pmol/min/mg protein
same,predicted in vivo (serum) clearance,"[1]; mouse, scaled from liver microsome rate",approximately 87 mL/min/kg
same,rate of in vitro metabolism,"[2]; rat microsomes, NADPH-fortified, 1 µM",630 pmol/min/mg protein
same,predicted in vivo (serum) clearance,"[2]; rat, scaled from liver microsome rate",~52 mL/min/kg
same,rate of in vitro metabolism,"[3]; dog microsomes, NADPH-fortified, 1 µM",40 pmol/min/mg protein
same,predicted in vivo (serum) clearance,"[3]; dog, scaled from liver microsome rate",~14 mL/min/kg
same,rate of in vitro metabolism,"[4]; cynomolgus monkey microsomes, NADPH-fortified, 1 µM",495 pmol/min/mg protein
same,predicted in vivo (serum) clearance,"[4]; cynomolgus monkey, scaled from liver microsome rate",~39 mL/min/kg
same,IC50,Aβ40,0.3 ± 0.15 nM
same,IC50,Aβ42,0.27 ± 0.12 nM
same,ED50,CSF Aβ40,1 to 10 mg/kg
same,ED50,"plasma Aβ40; Rattus norvegicus, read-out: ED50 for reduction of plasma Aβ40",1 to 10 mg/kg
same,"plasma Aβ40, % of starting values","plasma Aβ40; rat, single dose 1 mg/kg, by 8 hours",250%
same,plasma Aβ40,"plasma Aβ40; rat, single dose 1 mg/kg, by 24 hours",returning to baseline values
same,"plasma Aβ40, % of baseline Aβ40 values","plasma Aβ40; rat, single dose 10 mg/kg",less than 25%
same,"plasma Aβ40, % of vehicle control","plasma Aβ40; rat, single dose 30 mg/kg",2%
same,"plasma Aβ40, % of baseline Aβ40 values","plasma Aβ40; rat, single dose 100 mg/kg",less than 25%
